According to PubChem BioAssay AID588780 (Sanford-Burnham Center for Chemical Genomics, 2011):
Activity calls are given as the source filed them.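 How the source made its calls: active means compounds whose fitted half-maximal concentration in the cell-protection dose series is at or below a set limit; inactive means the rest.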

system: H9c2 cardiomyocytes, 2-deoxyglucose stress, ATP luminescence, 2 h; experiment: protection of cardiomyocytes from 2-deoxyglucose injury, dose response, cell-based, 2-deoxyglucose stress, uHTS hits (AID 588780)

| Compound | IC50 |
| --- | --- |
| Cc1cc(C)c(C)c(S(=O)(=O)N2CCN(C(=O)CCc3nc4ccccc4c(=O)[nH]3)CC2)c1C | > 79 µM (inactive) |
| COc1ccc(CCn2c(Br)nc3c2c(=O)[nH]c(=O)n3C)cc1 | > 79 µM (inactive) |
| Cc1ccc2cc3c(NC(=O)c4cccnc4)nn(C)c3nc2c1 | > 79 µM (inactive) |
| COc1ccccc1NC(=O)c1cc(-c2ccc(OC)c(OC)c2)nc2ccccc12 | > 79 µM (inactive) |
| C[C@@H](C(=O)Nc1nc(-c2ccccn2)cs1)N1C(=O)C2CCCCC2C1=O (stereo not given in full) | > 79 µM (inactive) |
| CC(C)(C)NC(=O)COC(=O)c1c2c(nc3ccccc13)CCC2 | 15.1 µM |
| N#C/C(=C1\CCCN1)c1nc2ccccc2c(=O)[nH]1 | > 79 µM (inactive) |
| O=C(N/N=C/c1ccccn1)c1cc(-c2cccc3ccccc23)n[nH]1 | > 79 µM (inactive) |
| CC(=O)c1cccc(Nc2nc3ccccc3n3cnnc23)c1 | > 79 µM (inactive) |
| COc1ccc(-c2cc(C(=O)N(C)Cc3ccc(OC)c(OC)c3OC)c3ccccc3n2)cc1OC | 10.4 µM |
| COC(=O)c1ccc(C(=O)OC)c(NC(=O)COC(=O)C23CC4CC(CC(O)(C4)C2)C3)c1 | 9.67 µM |
| Cc1ccc(CN(C(=O)CNC(=O)c2cccs2)C(C(=O)NCC2CCCO2)c2ccccc2)cc1 (stereo not given) | 14.1 µM |
| COc1ccc(Cl)cc1NC(=O)CN(C)C(=O)Cn1[nH]c(=O)c2ccccc2c1=O | > 79 µM (inactive) |
| COc1ccc2[nH]c(=O)c(CN(Cc3ccco3)Cc3nnnn3Cc3ccccc3)cc2c1 | > 79 µM (inactive) |
| COc1cc2ccnc(C=O)c2cc1OC | > 79 µM (inactive) |
| O=c1[nH]c2cccc(Cl)c2c2ccccc12 | > 79 µM (inactive) |
| O=C(c1cc(-c2cccnc2)nc2ccc(Br)cc12)N1CCN(c2ncccn2)CC1 | 9.44 µM |
| CN(C)S(=O)(=O)n1cc(/C=C(\NC(=O)c2ccccc2F)C(=O)NCCN2CCOCC2)c2ccccc21 | > 79 µM (inactive) |
| COc1cccc(-c2cnc3c(NC=O)cc(-c4ccc(O)c(OC)c4)cn23)c1 | > 79 µM (inactive) |
| CCOc1ccc2[nH]c(=O)c(CN(CCO)C(c3nnnn3C3CCCCC3)C(C)C)cc2c1 (stereo not given) | > 79 µM (inactive) |
| COc1cccc(Nc2nc3ccccc3n3cnnc23)c1 | 12.5 µM |
| CN(C(=O)c1sc2nc(N3CCOCC3)c3c(c2c1N)CCCC3)c1ccccc1 | 5.73 µM |
| COc1cc(OC)cc(C(=O)NNC(=O)CCc2nc3ccccc3c(=O)[nH]2)c1 | > 79 µM (inactive) |
| N#CCCN(C(=O)COC(=O)CCc1nc2ccccc2c(=O)[nH]1)c1ccccc1F | > 79 µM (inactive) |

| Compound | IC50 |
| --- | --- |
| Oc1c(Cl)cc(Cl)cc1C=Nc1ccc(N2CCOCC2)cc1 | 31.5 µM (inactive) |
| CCOC(=O)COc1cccc(C2NC(=O)c3ccccc3O2)c1 (stereo not given) | > 79 µM (inactive) |
| N#C/C(=C\Nc1ccc2c(c1)OCCO2)c1nc2ccccc2[nH]1 | > 79 µM (inactive) |
| O=C(CN1CCN(S(=O)(=O)c2cc(Cl)ccc2Cl)CC1)c1ccc(O)c(O)c1 | > 79 µM (inactive) |
| CC1Cc2ccccc2C(=O)N1 (stereo not given) | > 79 µM (inactive) |
| O=C(C[C@H]1C/C=C\CC[C@H](Cc2ccc(F)cc2)C(=O)O[C@@H](c2ccccc2)CNC1=O)N[C@H](CO)Cc1ccccc1 | > 79 µM (inactive) |
| CCOC(=O)COc1cc(OCC(=O)OCC)c2c3c(c(=O)oc2c1)CCCC3 | 16.4 µM |
| COc1ccc(NC(=O)CCCc2nc3ccccc3c(=O)[nH]2)cc1Cl | > 79 µM (inactive) |
| COc1cccc(-c2nn3c(-c4ccccn4)nnc3s2)c1 | 13.6 µM |
| COC(=O)C1=C(C)N(CCc2ccc(OC)cc2)C(=O)C1 | 39.4 µM (inactive) |
| CCN(CC)CCn1c2c(c(SCC(=O)Nc3cccc(C(C)=O)c3)nc1=O)CCCC2 | 13.1 µM |
| O=C(CCc1nc2ccccc2c(=O)[nH]1)N1CCN(c2ccccc2Cl)CC1 | > 79 µM (inactive) |
| O=C(CN1CCCCC1)Nc1nc(-c2ccc(F)c(F)c2)cs1 | 70.7 µM (inactive) |
| CCOc1ccc2[nH]c(=O)c(CN(Cc3ccco3)C(CC)c3nnnn3Cc3ccccc3)cc2c1 (stereo not given) | > 79 µM (inactive) |
| CCCN(CC(=O)Nc1ccc(F)c(F)c1F)C(=O)CCc1nc2ccccc2c(=O)[nH]1 | > 79 µM (inactive) |
| COc1ccc(NC(=O)c2cc(-c3ccc(OC)c(OC)c3)nc3ccccc23)c(OC)c1 | > 79 µM (inactive) |
| CCn1c(/C=N/NC(=O)c2ccc(OC)cc2)nc2ccccc21 | > 79 µM (inactive) |
| O=C(NNC(=O)c1ccccc1OCc1ccccc1Cl)c1csc(N2CCOCC2)n1 | 22.4 µM |
| O=c1[nH]c(N2CCN(c3ccccc3)CC2)nc2c1CCCC2 | > 79 µM (inactive) |
| CCOC(=O)C1C(=O)NC(SCC(=O)OC)=C(C#N)C1c1ccccc1OCC (stereo not given) | 17 µM |
| NC(=O)COc1ccc2oc(=O)cc(-c3cc4ccccc4o3)c2c1 | > 79 µM (inactive) |
| COc1ccc(N(CC(=O)Nc2ccc3c(c2)OCO3)S(=O)(=O)c2ccccc2)c(OC)c1 | 15.4 µM |
| COc1ccc(C(C(=O)NC2CCCC2)N(C(=O)c2snc(C(N)=O)c2N)c2cccc(O)c2)cc1 (stereo not given) | > 79 µM (inactive) |
| O=c1[nH]n(Cc2ccccc2)c(=O)c2ccccc12 | > 79 µM (inactive) |

| Compound | IC50 |
| --- | --- |
| CC(C)CCN(C(=O)CNC(=O)c1ccco1)C(C(=O)NC1CCCCC1)c1ccco1 (stereo not given) | 37.5 µM (inactive) |
| CC(C)=CCc1ccc(O)c(=O)cc1C(C)C | > 79 µM (inactive) |
| CCN(C[C@H]1N[C@@](CC)(C(=O)OC)[C@H]2C(=O)N(Cc3ccccc3)C(=O)[C@@H]12)S(=O)(=O)c1ccc(F)cc1 | > 79 µM (inactive) |
| CCC(C)N(C(=O)COC(=O)Cc1n[nH]c(=O)c2ccccc12)C1CCS(=O)(=O)C1 (stereo not given) | > 79 µM (inactive) |
| COc1cc(C(=O)NNC(=O)c2ccc3ccccc3n2)cc(OC)c1OC | > 79 µM (inactive) |
| O=C(NCc1ccco1)c1cnn2c(C(F)(F)F)cc(-c3cccs3)nc12 | > 79 µM (inactive) |
| O=C(Cn1[nH]c(=O)c2ccccc2c1=O)NCC1COc2ccccc2O1 (stereo not given) | > 79 µM (inactive) |
| COc1ccc(N(C(=O)c2cccc([N+](=O)[O-])c2)S(=O)(=O)c2cccs2)cc1 | 13.4 µM |
| Cc1nn(-c2ccccc2)c(N2CCCC2)c1/C=N/NC(=O)c1cc(-c2ccccn2)nc2ccccc12 | > 79 µM (inactive) |
| COc1ccc(OC)c(NC(=O)c2sc3ncnc(N4CCN(c5ccccn5)CC4)c3c2C)c1 | > 79 µM (inactive) |
| COCCN1CCN(c2c3c(nc4cc(-c5cccc(F)c5)nn24)CCC3)CC1 | 60.1 µM (inactive) |
| COc1cc(/C=N/NC(=O)c2cccnc2)ccc1OS(=O)(=O)c1cc(C)ccc1C | > 79 µM (inactive) |
| COc1cccc(-c2cnc3c(NC=O)cc(-c4cc(OC)c(OC)c(OC)c4)cn23)c1 | > 79 µM (inactive) |
| CN(C)S(=O)(=O)c1ccc(NC(=O)COC(=O)Cn2[nH]c(=O)c3ccccc3c2=O)cc1 | 9.56 µM |
| COc1ccc2c(c1)C(=O)[C@@H](O)[C@H](c1ccc(OC)c(Br)c1)O2 | 5.76 µM |
| O=c1[nH]nc(-c2cccs2)c2ccccc12 | 5.51 µM |
| CCCn1c(=O)c(C(=O)NCCc2ccc(Cl)cc2)c(O)c2ccccc21 | 11 µM |
| N#Cc1cnn2cc(-c3ncc(C(F)(F)F)cc3Cl)cnc12 | 27.6 µM |
| O=C(NCCc1ccccc1Cl)c1ccc2nc3ccccc3c(=O)n2c1 | 16.8 µM |
| COC(=O)c1ccc(Cn2nnc3c(=O)[nH]c(C4CCCN(S(=O)(=O)c5ccccc5)C4)nc32)cc1 (stereo not given) | > 79 µM (inactive) |
| CCOC(=O)N1CCc2c(sc(NC(=O)CN3CCOCC3)c2C(=O)Nc2ccccc2)C1 | 54.6 µM (inactive) |
| O=C(N/N=C/c1cccc(O)c1)c1cc(-c2ccc3c(c2)OCO3)n[nH]1 | > 79 µM (inactive) |
| O=C1OCCN1C(=O)[C@H]1[C@H](c2ccc([N+](=O)[O-])cc2)C(c2ccccc2)=NN1c1ccc(Br)cc1 | > 79 µM (inactive) |
| O=C(CCn1nc(-c2ccccc2)c2ccccc2c1=O)N1CCN(c2ccccc2)CC1 | > 79 µM (inactive) |

| Compound | IC50 |
| --- | --- |
| COc1ccc(C2CC(c3cccs3)n3nc(N)nc3N2)cc1 (stereo not given) | > 79 µM (inactive) |
| COc1ccc(/C=N/NC(=O)c2cccnc2)cc1CN1CCc2ccccc2C1 | > 79 µM (inactive) |
| COc1ccc(COc2cc(-c3cccc(OC)c3)nc3ccc(NC(=O)c4ccc(OC)cc4)cc23)cc1 | 5.3 µM |
| Cc1ccc(Nc2nc(N)[nH]c(=O)c2N=O)cc1 | > 79 µM (inactive) |
| CSc1nc2sc3c(c2c(=O)[nH]1)CCC3 | > 79 µM (inactive) |
| O=C(NCCN1CCN(c2ccccc2F)CC1)c1cccn2c(=O)c3ccccc3nc12 | 11.2 µM |
| COc1ccc(N/C=C(\C#N)c2nc3ccccc3n2C)c(OC)c1 | > 79 µM (inactive) |
| CCOC(=O)c1c2ccc(OCC(=O)N/N=C/c3ccc(C)cc3)cc2n2ccccc12 | > 79 µM (inactive) |
| Cc1ncc(CO)c2c1Oc1nc(-c3ccccc3)nc(SCC(=O)N3CCCCC3)c1C2 | > 79 µM (inactive) |
| O=C(CCC(=O)N1CCN(C2CCCCC2)CC1)Nc1nnc(C(F)(F)F)s1 | > 79 µM (inactive) |
| COc1ccnc(Oc2ccccc2)c1C(=O)N/C=N/OCc1ccc(F)cc1Cl | > 79 µM (inactive) |
| COc1cccc(C(=O)Nc2cc(C)c3c(=O)oc4ccccc4c3n2)c1 | > 79 µM (inactive) |
| COc1cccc(/C=N/NC(=O)c2ccncc2)c1OC(=O)c1ccc(Br)cc1 | 24.7 µM |
| CC(=O)Nc1ccc(C(=O)N/N=C/c2ccccc2OC(=O)c2ccc(Cl)cc2)cc1 | 11.5 µM |
| O=c1cc(CN2CCN(S(=O)(=O)c3cccc(Cl)c3)CC2)c2ccc(O)cc2o1 | > 79 µM (inactive) |
| Cc1ccc(N(CCC#N)C(=O)CSc2nc3ccccc3c(=O)[nH]2)cc1 | > 79 µM (inactive) |
| O=c1c2ccccc2nc(/C=C/c2ccc(O)cc2)n1-c1ccc(O)cc1 | > 79 µM (inactive) |
| O=c1[nH]c(-c2cccnc2)nc2ccccc12 | > 79 µM (inactive) |
| O=c1[nH]c(N2CCN(c3ccccc3)CC2)nc2c1CCC2 | > 79 µM (inactive) |
| Cc1cc(C(=O)COc2ccccc2C(N)=O)c(C)n1C | 25.3 µM |
| COC(=O)c1cc2ccccn2c2c(C(=O)OC)c(C(=O)OC)cc1-2 | > 79 µM (inactive) |
| COc1cc(NC(=O)c2cc3c(C)nc4ccccc4c3o2)cc(OC)c1OC | > 79 µM (inactive) |
| COc1cc2c(cc1OC)CN(CC(=O)Nc1ccccc1C#N)CC2 | 44.1 µM (inactive) |
